These results are taken from US20090170949A1, “Method To Control Body Weight” (priority 2006, published 2009).

For experiment [1] the following is noted: rats, high lactisole concentrations added to the diet; considered statistically insignificant; cited from earlier work.
The nature of experiment [2]: Effect of lactisole on body weight (applicant's general finding). The experiment is classed as in vivo. To be noted: also when encapsulated and/or coated to avoid contact with the taste receptor of the mouth.
The nature of experiment [3]: Triglycerides in blood plasma of obese marmosets treated with coated lactisole pills. In kind it is in vivo, common marmoset monkeys (Callithrix jacchus). More on the design: Triglycerides in blood plasma: unit not given here. The protocol: 5 mm diameter coated pill were made, comprising 20 mg tablettose, 26.5 mg Avicell PH 102, 2.5 mg Crospovidone and 1 mg Mg-stearate for the placebo, and 35 mg sodium 2-(4-methoxyphenoxy)propionate (Endeavour speciality chemicals), 11.5 mg Avicel PH 102, 2.5 mg Crospovidone and 1 mg Mg-stearate for the Lactisole pills. Pills were coated in a fluidized bed (GCPG1, Glatt), at a spray rate of 4 g/min, atomic pressure 1.5 bar, inlet air temperature 36° C., product temperature 31° C. at maximal air velocity. The composition of the coating solution was 11.4% Eudragit® EPO(Röhm Pharma), 1.14% Sodium lauryl sulphate (α-pharma), 4% Mg-stearate (α-pharma), 1.72% stearic acid (α-pharma) and water ad 100%.
Adult male and female common marmoset monkeys (Callithrix jacchus) were from the breeding colony of the German Primate Center (DPZ), Göttingen, Germany. Animals were housed in pairs in air-conditioned facilities on a 12 hr/12: HR light/dark cycle.
Animals were fed two times a day: mash feeding, containing 15 g of test diet in the morning, and 60 g of test diet in the afternoon (value per animal). Each time before feeding, the animals received two pills (either placebo or lactisole) in nutrical gel.
Three groups of marmosets were compared: 11 obese animals treated with lactisole, 11 obese animals receiving placebo and 12 lean control animals receiving placebo. The experiment is carried out for 10 weeks, and bodyweight, glycated hemoglobin HbA1c, and glucose in blood plasma is measured. […]
Obese animals were treated for 7 weeks with lactisole (70 mg, two times a day, before feeding). Control obese and lean animals received placebo pills.

The subject of experiment [4] is SGLT1. The experiment can be described thus: SGLT1 protein expression (western blot of luminal membrane vesicles) in wild-type mice on low carbohydrate plus sucralose diet. The note with it: 2 weeks. In kind it is in vivo, mouse. The protocol: (§1) Male CD-1 and C57BL/6 mice, six weeks old, from Charles River Laboratories were used. The α-gustducin knock out mouse was described by Wong et al. (1996); the T1R3 knock out mouse was described by Damak et al. 2003).
(§2) High and low carbohydrate diets were resp. TestDiet® 5810 and TestDiet® 5787-9. For the sucralose test, the low carbohydrate diet was supplemented with sucralose (1,6-dichloro-1,6-dideoxy-beta-D-fructofuranosyl-4-chloro-4-deoxy-alpha-galactopyranoside) at 2 mM.
(§3) Animals were killed by concussion followed by cervical dislocation. The entire small intestine was removed and flushed with ice-cold 0.9% NaCl, opened longitudinally, rinsed in saline and mucous removed by blotting. The small intestine was then divided into proximal, mid and distal sections and the mucosa removed by scraping. Mucosal scrapings were frozen immediately in liquid nitrogen and stored at −80° C. until use. […]
(§4) Second, groups of wild-type and T1R3 and α-gustducin KO mice were placed on each of three iso-caloric diets a) low carbohydrate, b) high carbohydrate, and c) low carbohydrate+artificial sweetener (sucralose), for two weeks. After this time the mice were killed and the small intestines were removed, divided into proximal, mid and distal regions, and SGLT1 expression, at protein and mRNA levels, were measured in each.
In general terms: A western blot detects proteins with antibodies after separation by electrophoresis.

The nature of experiment [5]: Body weight gain and food intake of mice on low carbohydrate diet with or without sucralose. In kind it is in vivo, mice (C57BL/6). The note with it: C57BL/6 mice, low carbohydrate diet with 0.3% sucralose, ad libitum, 12 weeks. An excerpt: induction of weight increase in mice by the use of an artificial sweetener Two groups of mice (C57BL/6) were fed ad libitum with a low carbohydrate diet (1.9% remaining carbohydrate, Purina), with or without 0.3% sucralose (Tate and Lyle). Food consumption and body weight was followed for a period of 12 weeks.

In experiment [6] the test system is SGLT1. Description: SGLT1 expression in α-gustducin knock-out mice on low carbohydrate plus sucralose diet. In kind it is in vivo, mouse. To be noted: α-gustducin KO mice, 2 weeks. On the procedure:
as §1, §2, §3, §4

The conditions of experiment [7]: male and female dogs, diet with various concentrations of sucralose; cited from earlier work.
Experiment [8] has as its system SGLT1. Description: SGLT1 expression in T1R3 knock-out mice on low carbohydrate plus sucralose diet. In kind it is in vivo, mouse. The note with it: T1R3 KO mice, 2 weeks. On the procedure:
as §1, §2, §3, §4

Experiment [9] deals with SGLT1. Description: SGLT1 mRNA levels (real-time PCR) in small intestine of wild-type mice on low carbohydrate plus sucralose diet. The experiment is classed as in vivo, mouse. The note with it: proximal and mid intestinal regions, sucralose (2 mM) added to low carbohydrate diet, 2 weeks, qPCR. The protocol: as §1, §2, §3, §4

Turning to `COc1ccc(OC(C)C(=O)O)cc1` (stereo not drawn) [Lactisole, sodium 2-(4-methoxyphenoxy) propanoate], the body-weight gain entry in experiment [1] was “reduction in body-weight gain”. Moreover, the “effect on body weight” value in experiment [2] is on record as “body weight loss”. Moreover, the “Triglycerides in blood plasma” value is 2.75 in experiment [3] (obese marmosets N = 11, high carb feeding week 0, week −4 with respect to lactisole treatment (before treatment)); 2.24 in experiment [3] (obese marmosets N = 11, high carb feeding week 3, week −1 with respect to lactisole treatment (before treatment)); 1.82 in [3] (obese marmosets N = 11, high carb feeding week 5, week 1 of lactisole treatment, 70 mg two times a day); 1.85 in experiment [3] (obese marmosets N = 11, high carb feeding week 7, week 3 of lactisole treatment, 70 mg two times a day); 1.57 in experiment [3] (obese marmosets N = 11, high carb feeding week 9, week 5 of lactisole treatment, 70 mg two times a day); 1.52 in experiment [3] (obese marmosets N = 11, high carb feeding week 11, week 7 of lactisole treatment, 70 mg two times a day). In addition, the “serum triglyceride level, course in treated obese animals” value in [3] (obese marmosets, 7 weeks lactisole 70 mg two times a day before feeding) is recorded as “decreasing to the level of the lean control”.
`OC[C@H]1O[C@H](O[C@]2(CCl)O[C@H](CCl)[C@@H](O)[C@@H]2O)[C@H](O)[C@@H](O)[C@H]1Cl` [sucralose, 1,6-dichloro-1,6-dideoxy-beta-D-fructofuranosyl-4-chloro-4-deoxy-alpha-galactopyranoside]: the SGLT1 protein expression result in the experiment with SGLT1 [4] is reported as “increased”. In experiment [5], the “average increase in body weight gain versus control group” value is 42% and the “food intake higher than control group” value is 7.5%. In the experiment with SGLT1 [6], the “SGLT1 mRNA response” value is “no increase” and the SGLT1 protein response result was “no increase”. In addition, the “body weight gain and final body weight” value in experiment [7] was “gaining more rapidly body weight and reached a higher final body weight level”. In addition, in the experiment on SGLT1 [8], the “SGLT1 mRNA response” value is recorded as “no increase” and the SGLT1 protein response result is given as “no increase”. For the same molecule, the “increase of SGLT1 mRNA” value with SGLT1 [9] is 30-70%.
